Laboratory results reported in US11767295B2, “Isoindole derivative” (TIANJIN HEMAY PHARMACEUTICAL CO., LTD., priority 2018, dated 2023).

Key:
Assay type in all cases: in vivo
[1] = tested on: Phorbol ester (TPA)-induced ear swelling in mice; assay: Inhibition of phorbol ester (TPA)-induced ear swelling in mice (Biological Example 6); conditions: ICR mice, 5 hours after TPA modeling; for Ear Swelling Rate / Inhibitory Rate of Ear Swelling Degree: 2 mg/mouse on right ear; for Ear Swelling Rate: (right−left)/left ear weight; for Inhibitory Rate of Ear Swelling Degree: vs model and blank control; for Ear Swelling Degree: 50 mg/mL in acetone, 40 μL in 2 administrations (2 mg/mouse)
Method: (§1) 72 male ICR mice were selected and divided into 9 groups. There were 8 mice in each group.
(§2) Before the test, the animals were grouped and the hair around the right ear of the mice was removed.
(§3) 20 μL of respective drug was applied to the animals in each test group (a blank solvent was applied to the model control group). Modeling and induction were carried out after 1 h 10 min. Except for the blank group, 20 μL of TPA at a concentration of 125 μg/mL were applied to the right ears of the animals for induction. After induction for 10 minutes, 20 μL of respective drug were applied to the right ears of the animals in each test group (a blank solvent was applied to the model control group).
After modeling for 5 hours, ear pieces of both sides at the same location of animals in each group were taken with a punch and weighed to calculate the ear swelling degree, ear swelling rate and inhibitory rate.
The ear swelling degree and ear swelling rate after modeling and administration for 5 hours were analyzed and tested with One-Way ANOVA multiple-group test index in SPSS17.0. […] Ear swelling degree (mg)=right ear weight (mg)−left ear weight (mg); Ear swelling rate (%)=(right ear weight−left ear weight)/left ear weight×100%; Inhibitory rate of ear swelling degree (%)=1−(swelling degree of drug administration group−swelling degree of blank control group)/(swelling degree of model control group−swelling degree of blank control group)×100%.

[2] = tested on: Phorbol ester (TPA)-induced ear swelling in mice; assay: Inhibition of phorbol ester (TPA)-induced ear swelling in mice (Biological Example 5); conditions: ICR mice, 5 hours after TPA modeling; for Ear Swelling Rate / Inhibitory Rate of Ear Swelling Degree: 2 mg/mouse on right ear; for Ear Swelling Rate: (right−left)/left ear weight; for Inhibitory Rate of Ear Swelling Degree: vs model and blank control; for Ear Swelling Degree: 50 mg/mL in acetone, 40 μL in 2 administrations (2 mg/mouse)
Method: as §1, §2, §3
After modeling for 5 hours, ear pieces of both sides on the same location of animals in each group were taken with a punch and weighed to calculate the ear swelling degree, ear swelling rate and inhibitory rate.
The ear swelling degree and ear swelling rate after modeling and administration for 5 hours were analyzed and tested with One-Way ANOVA multiple-group test index in SPSS17.0. P<0.05 indicated there were statistical differences. Ear swelling degree (mg)=right ear weight (mg)−left ear weight (mg); Ear swelling rate (%)=(right ear weight−left ear weight)/left ear weight×100%; Inhibitory rate of ear swelling degree (%)=1−(ear swelling degree of drug administration group−ear swelling degree of blank control group)/(ear swelling degree of model control group−ear swelling degree of blank control group)×100%.

[3] = tested on: DNCB-induced atopic dermatitis in Balb/c mice; assay: Efficacy evaluation test of DNCB-induced atopic dermatitis in Balb/c mice model (Biological Example 2); conditions: BID × 10; for Inhibitory Rate of Ear Swelling / Weight Changes of Animals, Day 10 / Weight Changes of Animals, Day 17 / Weight Changes of Animals, Day 18 / Ear Swelling Degree / IgE Concentration / Inhibitory Rate of IgE Concentration: 1 mg/mouse on ear; for Inhibitory Rate of Ear Swelling / Ear Swelling Degree / IgE Concentration / Inhibitory Rate of IgE Concentration: 18th day; for Inhibitory Rate of Ear Swelling / Inhibitory Rate of IgE Concentration: vs model and blank control; for Weight Changes of Animals, Day 1 / Weight Changes of Animals, Day 10 / Weight Changes of Animals, Day 17 / Weight Changes of Animals, Day 18: Balb/c mice, Mean ± S.D.; for Weight Changes of Animals, Day 1: 1 mg/mouse (50 mg/mL, 20 μL) on ear; for Ear Swelling Degree: right minus left ear piece weight; for IgE Concentration / Inhibitory Rate of IgE Concentration: serum
Method: 70 healthy male SPF Balb/c mice, each of which the weight was 19-21 g, were randomly divided into 7 groups by body weight. There were 10 mice in each group.
(§4) Before the test, the hair around the right ear of the mouse was removed to reduce the interference in the drug adhesion to the hair.
The start of the test was recorded as Day 1. After the end of the 18th day of the test, blood was taken from each animal to detect the concentration of immunoglobulin (IgE) in the serum (in accordance with the kit instructions). Both ears of the animal were cut off. Ear pieces were cut by an 8 mm punch at the fixed position of the ears and weighed. Differences in the swelling degrees of two ears were calculated.
(§5) The IgE concentrations in the serum of different groups on the 18th day were analyzed and compared statistically with One-Way Anova in SPSS 17, respectively. The G test method was used to delete outliers. p<0.05 indicated there were statistical differences. Ear swelling degree (mg)=right ear weight (mg)−left ear weight (mg); Inhibitory rate of ear swelling degree (%)=1−(ear swelling degree of drug administration group−ear swelling degree of blank control group)/(ear swelling degree of model control group−ear swelling degree of blank control group)×100%; Inhibitory rate of IgE (%)=1−(IgE concentration in administration group−IgE concentration in blank control group)/(IgE concentration in model control group−IgE concentration in blank control group)×100%.

[4] = tested on: DNCB-induced atopic dermatitis in Balb/c mice; assay: Efficacy evaluation test of DNCB-induced atopic dermatitis in Balb/c mice model (Biological Example 1); conditions: BID × 10
Method: 60 healthy male SPF Balb/c mice, each of which the body weight was 19-21 g, were randomly divided into 6 groups by body weight. There were 10 mice in each group.
as §4
The start of the test was recorded as Day 1. The specific time for measuring ear thickness was slightly adjusted based on FIG. 1. After the end of the 18th day of the test, blood was taken from each animal to detect the concentration of immunoglobulin (IgE) in the serum (in accordance with the kit instructions). Both ears of the animal were cut off. Ear pieces were cut by an 8 mm punch at the fixed position of the ears and weighed. Differences in the swelling degrees of two ears were calculated.
as §5, with “The changes in mouse ear thickness and the ear weights of the same area and the IgE concentrations” for “The IgE concentrations”, “the serum among different groups” for “the serum of different groups”, “weight (mg); Ear thickness change (mm)=right ear thickness (mm)−left ear thickness (mm); Inhibitory rate” for “weight (mg); Inhibitory rate”, “rate of ear thickness change (%)=1−(ear thickness change of drug administration group−ear thickness change of blank control group)/(ear thickness change of model control group−ear thickness change of blank control group)×100%; Inhibitory rate of IgE (%)=1−(IgE” for “rate of IgE (%)=1−(IgE”

[5] = Balb/c mice, 1 mg/mouse on ear, Day 10, Mean ± S.D.
[6] = Balb/c mice, 1 mg/mouse on ear, Day 17, Mean ± S.D.
[7] = Balb/c mice, 1 mg/mouse on ear, Day 18, Mean ± S.D.

CCOc1cc(C(CC(=O)OC)N2C(=O)c3cccc(NC(C)=O)c3C2=O)ccc1OC(C)C (stereo not drawn) [Example 18, methyl 3-(4-acetamido-1,3-dioxoisoindolin-2-yl)-3-(3-ethoxy-4-isopropoxyphenyl)propionate]
Ear Swelling Rate [1]: 33.9 ± 14.0 % | Inhibitory Rate of Ear Swelling Degree [1]: 88.1% | Ear Swelling Degree [1]: 4.8 ± 1.9 mg

CCOc1cc(C(CC(=O)OC)N2C(=O)c3ccc(NC(C)=O)cc3C2=O)ccc1OC (stereo not drawn) [Example 25, methyl 3-(5-acetamido-1,3-dioxoisoindolin-2-yl)-3-(3-ethoxy-4-methoxyphenyl)propionate]
Ear Swelling Rate [2]: 59.1 ± 17.5 % | Inhibitory Rate of Ear Swelling Degree [2]: 73.6% | Ear Swelling Degree [2]: 8.5 ± 2.7 mg

CCOC(=O)CC(c1ccc(OC)c(OCC)c1)N1C(=O)c2cccc(NC(C)=O)c2C1=O (stereo not drawn) [Example 6, ethyl 3-(4-acetamido-1,3-dioxoisoindolin-2-yl)-3-(3-ethoxy-4-methoxyphenyl)propionate]
Inhibitory Rate of Ear Swelling [3]: 41.7% | Weight Changes of Animals, Day 1 [3]: 21.4 ± 0.7 g | Weight Changes of Animals, Day 10 [3]: 22.8 ± 1.4 g | Weight Changes of Animals, Day 17 [3]: 23.3 ± 1.4 g | Weight Changes of Animals, Day 18 [3]: 22.7 ± 1.5 g | Ear Swelling Degree [3]: 17.1 ± 4.0 mg | IgE Concentration [3]: 5871.9 ± 2973.8 ng/mL | Inhibitory Rate of IgE Concentration [3]: 32.8% | Ear Swelling Rate [2]: 36.4 ± 11.9 % | Inhibitory Rate of Ear Swelling Degree [2]: 87.3% | Ear Swelling Degree [2]: 5.1 ± 1.6 mg

CCOc1cc(C(CC(=O)OC)N2C(=O)c3cccc(N(C)C(C)=O)c3C2=O)ccc1OC (stereo not drawn) [Example 24, methyl 3-(4-(N-methylacetamido)-1,3-dioxoisoindolin-2-yl)-3-(3-ethoxy-4-methoxyphenyl)propionate]
Ear Swelling Rate [2]: 43.0 ± 11.8 % | Inhibitory Rate of Ear Swelling Degree [2]: 84.2% | Ear Swelling Degree [2]: 5.9 ± 1.7 mg

CCOC(=O)C[C@H](c1ccc(OC)c(OCC)c1)N1C(=O)c2cccc(NC(C)=O)c2C1=O [Example 51, ethyl (R)-3-(4-acetamido-1,3-dioxoisoindolin-2-yl)-3-(3-ethoxy-4-methoxyphenyl)propionate]
Inhibitory Rate of Ear Swelling [3]: 25.0% | Weight Changes of Animals, Day 1 [3]: 21.8 ± 0.7 g | Weight Changes of Animals, Day 10 [3]: 22.8 ± 1.2 g | Weight Changes of Animals, Day 17 [3]: 23.1 ± 1.1 g | Weight Changes of Animals, Day 18 [3]: 22.9 ± 1.3 g | Ear Swelling Degree [3]: 21.7 ± 4.5 mg | IgE Concentration [3]: 6599.5 ± 2996.0 ng/mL | Inhibitory Rate of IgE Concentration [3]: 23.3%

CCCOc1cc(C(CC(=O)OC)N2C(=O)c3cccc(NC(C)=O)c3C2=O)ccc1OC (stereo not drawn) [Example 29, methyl 3-(4-acetamido-1,3-dioxoisoindolin-2-yl)-3-(3-propoxy-4-methoxyphenyl)propionate]
Ear Swelling Rate [1]: 46.8 ± 33.9 % | Inhibitory Rate of Ear Swelling Degree [1]: 81.5% | Ear Swelling Degree [1]: 6.5 ± 4.6 mg

COC(=O)CC(c1ccc(OC)c(OC)c1)N1C(=O)c2cccc(NC(C)=O)c2C1=O (stereo not drawn) [Example 3, methyl 3-(4-acetamido-1,3-dioxoisoindolin-2-yl)-3-(3,4-dimethoxyphenyl)propionate]
Ear Swelling Rate [2]: 42.1 ± 19.3 % | Inhibitory Rate of Ear Swelling Degree [2]: 83.7% | Ear Swelling Degree [2]: 6.0 ± 2.5 mg | Inhibitory Rate of Ear Swelling Degree ([4]; 1 mg/mouse on ear, 18th day, vs model and blank control): 37.8% | Weight Changes of Animals, Day 1 ([4]; Balb/c mice, 1 mg/mouse (50 mg/mL, 20 μL) on ear, Day 1, Mean ± S.D.): 20.6 ± 0.8 g | Inhibitory Rate of Ear Thickness ([4]; Balb/c mice, 1 mg/mouse on ear, 18th day, vs model and blank control): 34.0% | Ear Thickness Change, Day 1 ([4]; Balb/c mice, 1 mg/mouse on ear, Day 1, Mean ± S.D.): 0.21 ± 0.01 mm | Ear Thickness Change, Day 10 [4, 5]: 0.38 ± 0.10 mm | Weight Changes of Animals, Day 10 [4, 5]: 22.3 ± 1.4 g | Ear Thickness Change, Day 17 [4, 6]: 0.58 ± 0.09 mm | Weight Changes of Animals, Day 17 [4, 6]: 22.1 ± 1.8 g | Ear Thickness Change, Day 18 [4, 7]: 0.58 ± 0.10 mm | Weight Changes of Animals, Day 18 [4, 7]: 21.7 ± 1.8 g | Ear Thickness ([4]; Table 4, Balb/c mice, 1 mg/mouse on ear, 18th day): 0.58 ± 0.10 mm | Ear Swelling Degree ([4]; right minus left ear piece weight (8 mm punch), 1 mg/mouse on ear, 18th day): 15.7 ± 4.5 mg | IgE Concentration ([4]; serum, 1 mg/mouse on ear, 18th day): 6526.5 ± 2171.9 ng/mL | Inhibitory Rate of IgE Concentration ([4]; serum, 1 mg/mouse on ear, 18th day, vs model and blank control): 27.0%

CCOc1cc(C(CC(=O)OC(C)C)N2C(=O)c3cccc(NC(C)=O)c3C2=O)ccc1OC (stereo not drawn) [Example 12, isopropyl 3-(4-acetamido-1,3-dioxoisoindolin-2-yl)-3-(3-ethoxy-4-methoxyphenyl)propionate]
Ear Swelling Rate [2]: 39.6 ± 14.0 % | Inhibitory Rate of Ear Swelling Degree [2]: 84.8% | Ear Swelling Degree [2]: 5.8 ± 2.3 mg

COC(=O)CC(c1ccc(OC)c(OC2CCCC2)c1)N1C(=O)c2cccc(NC(C)=O)c2C1=O (stereo not drawn) [Example 30, methyl 3-(4-acetamido-1,3-dioxoisoindolin-2-yl)-3-(3-cyclopentyloxy-4-methoxyphenyl)propionate]
Ear Swelling Rate [1]: 85.0 ± 27.4 % | Inhibitory Rate of Ear Swelling Degree [1]: 60.8% | Ear Swelling Degree [1]: 12.0 ± 3.5 mg

CCOc1cc(C(CC(=O)OC)N2C(=O)c3cccc(NC(C)=O)c3C2=O)ccc1OC1CCCC1 (stereo not drawn) [Example 20, methyl 3-(4-acetamido-1,3-dioxoisoindolin-2-yl)-3-(3-ethoxy-4-cyclopentyloxyphenyl)propionate]
Ear Swelling Rate [1]: 63.9 ± 19.3 % | Inhibitory Rate of Ear Swelling Degree [1]: 73.0% | Ear Swelling Degree [1]: 8.8 ± 2.8 mg
